US7820623B2 (priority 2006, dated 2010)
pIC50: −log10 of the molar value. Read-outs that look alike come from different tables or passages of the source. Bridge positions count the residues as written; N and C are the ends. Square brackets hold non-standard residues; d marks the D form. Peptide text beside a SMILES is read from it. 1Nal = N[C@@H](Cc1cccc2ccccc12)C(=O)O

Columns and labels:
[1] = system: thapsigargin-induced IFN-g production in human whole blood; type: cell-based
[2] = system: thapsigargin-induced IL-2 production in human whole blood
[3] = read-out: Analogue Activity (IC50) WB/IFNg
[4] = read-out: Analogue Activity (IC50) WB/IL-2

Compound	pIC50 [1, 3]	pIC50 [2, 4]	pIC50 ([1]; read-out: Average IC50 IFNg)	pIC50 ([2]; read-out: Average IC50 IL-2)
CC[C@H](C)[C@@H]1NC(=O)[C@H](CCCCN)NC(=O)[C@@H](NC(=O)[C@H](CCCCN)NC(=O)[C@@H](NC(=O)[C@H](CC(N)=O)NC(=O)[C@@H](NC(=O)[C@@H](NC(=O)[C@@H](NC(=O)CN)C(C)C)[C@@H](C)CC)[C@@H](C)CC)C(C)C)CSSC[C@@H]2NC(=O)[C@H](CCCCN)NC(=O)CNC(=O)[C@H](Cc3ccccc3)NC(=O)[C@H](CCCNC(=N)N)NC(=O)[C@H](CCSC)NC(=O)CNC(=O)[C@H](C)NC(=O)[C@H](Cc3cccc4ccccc34)NC(=O)[C@H](CCCCN)NC(=O)[C@@H]3CSSC[C@@H](C(=O)N[C@H](C(=O)N4CCC[C@H]4C(=O)N[C@@H](CCCCN)C(=O)O)[C@@H](C)O)NC(=O)[C@H](Cc4c[nH]cn4)NC(=O)[C@H](CSSC[C@H](NC(=O)[C@H](CCC(N)=O)NC(=O)[C@H](CCCNC(=N)N)NC(=O)[C@H](CO)NC1=O)C(=O)N[C@@H](CC(C)C)C(=O)N[C@@H](CCC(=O)O)C(=O)N1CCC[C@H]1C(=O)N3)NC(=O)[C@H](CCCCN)NC(=O)CNC(=O)[C@H](CC(N)=O)NC(=O)[C@H](CCSC)NC2=O [K20Nal] (H-GVIINVKCKISRQCLEPCK[1Nal]AGMRFGKCMNGKCHCTPK-OH; disulfide 8-28, 14-33, 18-35)	9.90	10.13	–	–
CC[C@H](C)[C@@H]1NC(=O)[C@H](CCCCN)NC(=O)[C@@H](NC(=O)[C@H](CCCCN)NC(=O)[C@@H](NC(=O)[C@H](CC(N)=O)NC(=O)[C@@H](NC(=O)[C@H](Cc2cccc3ccccc23)NC(=O)[C@@H](NC(=O)CN)C(C)C)[C@@H](C)CC)C(C)C)CSSC[C@@H]2NC(=O)[C@H](CCCCN)NC(=O)CNC(=O)[C@H](Cc3ccccc3)NC(=O)[C@H](CCCNC(=N)N)NC(=O)[C@H](CCSC)NC(=O)CNC(=O)[C@H](C)NC(=O)[C@H](CCCCN)NC(=O)[C@H](CCCCN)NC(=O)[C@@H]3CSSC[C@@H](C(=O)N[C@H](C(=O)N4CCC[C@H]4C(=O)N[C@@H](CCCCN)C(=O)O)[C@@H](C)O)NC(=O)[C@H](Cc4c[nH]cn4)NC(=O)[C@H](CSSC[C@H](NC(=O)[C@H](CCC(N)=O)NC(=O)[C@H](CCCNC(=N)N)NC(=O)[C@H](CO)NC1=O)C(=O)N[C@@H](CC(C)C)C(=O)N[C@@H](CCC(=O)O)C(=O)N1CCC[C@H]1C(=O)N3)NC(=O)[C@H](CCCCN)NC(=O)CNC(=O)[C@H](CC(N)=O)NC(=O)[C@H](CCSC)NC2=O [I3Nal] (H-GV[1Nal]INVKCKISRQCLEPCKKAGMRFGKCMNGKCHCTPK-OH; disulfide 8-28, 14-33, 18-35)	9.13	9.04	–	–
CC[C@H](C)[C@@H]1NC(=O)[C@H](CCCCN)NC(=O)[C@@H](NC(=O)[C@H](CCCCN)NC(=O)[C@@H](NC(=O)[C@H](CC(N)=O)NC(=O)[C@@H](NC(=O)[C@@H](NC(=O)[C@@H](NC(=O)CN)C(C)C)[C@@H](C)CC)[C@@H](C)CC)C(C)C)CSSC[C@@H]2NC(=O)[C@H](CCCCN)NC(=O)CNC(=O)[C@H](Cc3ccccc3)NC(=O)[C@H](CCCNC(=N)N)NC(=O)[C@H](CCSC)NC(=O)CNC(=O)[C@H](CCC(=O)O)NC(=O)[C@H](CCCCN)NC(=O)[C@H](CCCCN)NC(=O)[C@@H]3CSSC[C@@H](C(=O)N[C@H](C(=O)N4CCC[C@H]4C(=O)N[C@@H](CCCCN)C(=O)O)[C@@H](C)O)NC(=O)[C@H](Cc4c[nH]cn4)NC(=O)[C@H](CSSC[C@H](NC(=O)[C@H](CCC(N)=O)NC(=O)[C@H](CCCNC(=N)N)NC(=O)[C@H](CO)NC1=O)C(=O)N[C@@H](CC(C)C)C(=O)N[C@@H](CCC(=O)O)C(=O)N1CCC[C@H]1C(=O)N3)NC(=O)[C@H](CCCCN)NC(=O)CNC(=O)[C@H](CC(N)=O)NC(=O)[C@H](CCSC)NC2=O [A21E] (H-GVIINVKCKISRQCLEPCKKEGMRFGKCMNGKCHCTPK-OH; disulfide 8-28, 14-33, 18-35)	9.86	9.93	–	–
CC[C@H](C)[C@@H]1NC(=O)[C@H](CCCCN)NC(=O)[C@@H](NC(=O)[C@H](CCCCN)NC(=O)[C@@H](NC(=O)[C@H](CC(N)=O)NC(=O)[C@@H](NC(=O)[C@@H](NC(=O)[C@@H](NC(=O)CN)C(C)C)[C@@H](C)CC)[C@@H](C)CC)C(C)C)CSSC[C@@H]2NC(=O)[C@H](CCCCN)NC(=O)CNC(=O)[C@H](Cc3ccccc3)NC(=O)[C@H](CCCNC(=N)N)NC(=O)[C@H](CCSC)NC(=O)CNC(=O)[C@H](C)NC(=O)[C@H](CCCCN)NC(=O)[C@H](CCCCN)NC(=O)[C@@H]3CSSC[C@@H](C(=O)N[C@H](C(=O)N4CCC[C@H]4C(=O)N[C@@H](CCCCN)C(=O)O)[C@@H](C)O)NC(=O)[C@H](Cc4c[nH]cn4)NC(=O)[C@H](CSSC[C@H](NC(=O)[C@H](C)NC(=O)[C@H](CCCNC(=N)N)NC(=O)[C@H](CO)NC1=O)C(=O)N[C@@H](CC(C)C)C(=O)N[C@@H](CCC(=O)O)C(=O)N1CCC[C@H]1C(=O)N3)NC(=O)[C@H](CCCCN)NC(=O)CNC(=O)[C@H](CC(N)=O)NC(=O)[C@H](CCSC)NC2=O [Q13A] (H-GVIINVKCKISRACLEPCKKAGMRFGKCMNGKCHCTPK-OH; disulfide 8-28, 14-33, 18-35)	9.88	9.83	–	–
CC[C@H](C)[C@@H]1NC(=O)[C@H](CCCCN)NC(=O)[C@@H](NC(=O)[C@H](CCCCN)NC(=O)[C@@H](NC(=O)[C@H](CC(N)=O)NC(=O)[C@@H](NC(=O)[C@@H](NC(=O)[C@@H](NC(=O)[C@@H](N)CCC(=O)O)C(C)C)[C@@H](C)CC)[C@@H](C)CC)C(C)C)CSSC[C@@H]2NC(=O)[C@H](CCCCN)NC(=O)CNC(=O)[C@H](Cc3ccccc3)NC(=O)[C@H](CCCNC(=N)N)NC(=O)[C@H](CCSC)NC(=O)CNC(=O)[C@H](C)NC(=O)[C@H](CCCCN)NC(=O)[C@H](CCCCN)NC(=O)[C@@H]3CSSC[C@@H](C(=O)N[C@H](C(=O)N4CCC[C@H]4C(=O)N[C@@H](CCCCN)C(=O)O)[C@@H](C)O)NC(=O)[C@H](Cc4c[nH]cn4)NC(=O)[C@H](CSSC[C@H](NC(=O)[C@H](CCC(N)=O)NC(=O)[C@H](CCCNC(=N)N)NC(=O)[C@H](CO)NC1=O)C(=O)N[C@@H](CC(C)C)C(=O)N[C@@H](CCC(=O)O)C(=O)N1CCC[C@H]1C(=O)N3)NC(=O)[C@H](CCCCN)NC(=O)CNC(=O)[C@H](CC(N)=O)NC(=O)[C@H](CCSC)NC2=O [G1E] (H-EVIINVKCKISRQCLEPCKKAGMRFGKCMNGKCHCTPK-OH; disulfide 8-28, 14-33, 18-35)	8.90	8.91	–	–
CC[C@H](C)[C@@H]1NC(=O)[C@H](CCCCN)NC(=O)[C@@H](NC(=O)[C@H](CCCCN)NC(=O)[C@H](CCCNC(=N)N)NC(=O)[C@H](CC(N)=O)NC(=O)[C@@H](NC(=O)[C@@H](NC(=O)[C@@H](NC(=O)CN)C(C)C)[C@@H](C)CC)[C@@H](C)CC)CSSC[C@@H]2NC(=O)[C@H](CCCCN)NC(=O)CNC(=O)[C@H](Cc3ccccc3)NC(=O)[C@H](CCCNC(=N)N)NC(=O)[C@H](CCSC)NC(=O)CNC(=O)[C@H](C)NC(=O)[C@H](CCCCN)NC(=O)[C@H](CCCCN)NC(=O)[C@@H]3CSSC[C@@H](C(=O)N[C@H](C(=O)N4CCC[C@H]4C(=O)N[C@@H](CCCCN)C(=O)O)[C@@H](C)O)NC(=O)[C@H](Cc4c[nH]cn4)NC(=O)[C@H](CSSC[C@H](NC(=O)[C@H](CCC(N)=O)NC(=O)[C@H](CCCNC(=N)N)NC(=O)[C@H](CO)NC1=O)C(=O)N[C@@H](CC(C)C)C(=O)N[C@@H](CCC(=O)O)C(=O)N1CCC[C@H]1C(=O)N3)NC(=O)[C@H](CCCCN)NC(=O)CNC(=O)[C@H](CC(N)=O)NC(=O)[C@H](CCSC)NC2=O [V6R] (H-GVIINRKCKISRQCLEPCKKAGMRFGKCMNGKCHCTPK-OH; disulfide 8-28, 14-33, 18-35)	9.94	10.08	–	–
GVIINVKCKISRQCLEACKKAGMRFGKCMNGKCHCTPK [Ala-17 (SEQ ID No: 1414)]	–	–	9.76	9.76
CC[C@H](C)[C@@H]1NC(=O)[C@H](CCCCN)NC(=O)[C@@H](NC(=O)[C@H](CCCCN)NC(=O)[C@@H](NC(=O)[C@H](CC(N)=O)NC(=O)[C@@H](NC(=O)[C@@H](NC(=O)[C@@H](NC(=O)CN)C(C)C)[C@@H](C)CC)[C@@H](C)CC)C(C)C)CSSC[C@@H]2NC(=O)[C@H](CCCCN)NC(=O)CNC(=O)[C@H](Cc3ccccc3)NC(=O)[C@H](CCCNC(=N)N)NC(=O)[C@H](CCSC)NC(=O)[C@H](Cc3cccc4ccccc34)NC(=O)[C@H](C)NC(=O)[C@H](CCCCN)NC(=O)[C@H](CCCCN)NC(=O)[C@@H]3CSSC[C@@H](C(=O)N[C@H](C(=O)N4CCC[C@H]4C(=O)N[C@@H](CCCCN)C(=O)O)[C@@H](C)O)NC(=O)[C@H](Cc4c[nH]cn4)NC(=O)[C@H](CSSC[C@H](NC(=O)[C@H](CCC(N)=O)NC(=O)[C@H](CCCNC(=N)N)NC(=O)[C@H](CO)NC1=O)C(=O)N[C@@H](CC(C)C)C(=O)N[C@@H](CCC(=O)O)C(=O)N1CCC[C@H]1C(=O)N3)NC(=O)[C@H](CCCCN)NC(=O)CNC(=O)[C@H](CC(N)=O)NC(=O)[C@H](CCSC)NC2=O [G22Nal] (H-GVIINVKCKISRQCLEPCKKA[1Nal]MRFGKCMNGKCHCTPK-OH; disulfide 8-28, 14-33, 18-35)	7.97	7.99	–	–
CC[C@H](C)[C@H](NC(=O)[C@H](C)NC(=O)[C@@H](NC(=O)CN)C(C)C)C(=O)N[C@@H](CC(N)=O)C(=O)N[C@H](C(=O)N[C@@H](CCCCN)C(=O)N[C@H]1CSSC[C@@H]2NC(=O)[C@H](CCCCN)NC(=O)CNC(=O)[C@H](Cc3ccccc3)NC(=O)[C@H](CCCNC(=N)N)NC(=O)[C@H](CCSC)NC(=O)CNC(=O)[C@H](C)NC(=O)[C@H](CCCCN)NC(=O)[C@H](CCCCN)NC(=O)[C@@H]3CSSC[C@@H](C(=O)N[C@H](C(=O)N4CCC[C@H]4C(=O)N[C@@H](CCCCN)C(=O)O)[C@@H](C)O)NC(=O)[C@H](Cc4c[nH]cn4)NC(=O)[C@H](CSSC[C@H](NC(=O)[C@H](CCC(N)=O)NC(=O)[C@H](CCCNC(=N)N)NC(=O)[C@H](CO)NC(=O)[C@H]([C@@H](C)CC)NC(=O)[C@H](CCCCN)NC1=O)C(=O)N[C@@H](CC(C)C)C(=O)N[C@@H](CCC(=O)O)C(=O)N1CCC[C@H]1C(=O)N3)NC(=O)[C@H](CCCCN)NC(=O)CNC(=O)[C@H](CC(N)=O)NC(=O)[C@H](CCSC)NC2=O)C(C)C [I3A] (H-GVAINVKCKISRQCLEPCKKAGMRFGKCMNGKCHCTPK-OH; disulfide 8-28, 14-33, 18-35)	10.00	10.05	–	–
